Reference: ChEMBL document CHEMBL1201862, “PubChem BioAssay data set” (2004)
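Tested at 5 concentrations; 48 h exposure; 96-well plates; endpoints linearly interpolated, else capped at highest concentration. Here, GI50 denotes the concentration required for 50% inhibition of growth.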 Calls of active or inactive are those of the source. Rule as the data show it: active = GI50 up to about 1.1 µM and inactive = higher.

Legend:
Assay in all cases: DTP human tumour cell line panel, 48 h
COLO 205 = system: COLO 205
Malme-3M = system: Malme-3M
SNB-75 = system: SNB-75
SF-539 = system: SF-539
IGROV-1 = system: IGROV-1
CAKI-1 = system: CAKI-1
MCF7 = system: MCF7
NCI-H522 = system: NCI-H522
K562 = system: K562
PC-3 = system: PC-3
HL-60 = system: HL-60
T47D = system: T47D
SR = system: SR
MDA-MB-435 = system: MDA-MB-435
BT-549 = system: BT-549
MDA-MB-231 = system: MDA-MB-231
MDA-N = system: MDA-N
A498 = system: A498
SF-295 = system: SF-295
OVCAR-4 = system: OVCAR-4

Structure (SMILES)	GI50 (COLO 205)	GI50 (Malme-3M)	GI50 (SNB-75)	GI50 (SF-539)	GI50 (IGROV-1)	GI50 (CAKI-1)	GI50 (MCF7)	GI50 (NCI-H522)	GI50 (K562)	GI50 (PC-3)	GI50 (HL-60)	GI50 (T47D)	GI50 (SR)	GI50 (MDA-MB-435)	GI50 (BT-549)	GI50 (MDA-MB-231)	GI50 (MDA-N)	GI50 (A498)	GI50 (SF-295)	GI50 (OVCAR-4)
CN(CCCNC(=O)c1cc(-c2ccccc2)nc2ccccc12)CCCNC(=O)c1cc(-c2ccccc2)nc2ccccc12	1.79 µM (inactive)	1.94 µM (inactive)	2.33 µM (inactive)	2.2 µM (inactive)	4.41 µM (inactive)	9.16 µM (inactive)	1.48 µM (inactive)	1.77 µM (inactive)	1.99 µM (inactive)	3.56 µM (inactive)	2.19 µM (inactive)	2.95 µM (inactive)	3.36 µM (inactive)	1.76 µM (inactive)	12.9 µM (inactive)	2.44 µM (inactive)	1.8 µM (inactive)	4.41 µM (inactive)	1.77 µM (inactive)	3.54 µM (inactive)
CC[C@@]1(O)C(=O)OCc2c1cc1n(c2=O)Cc2c-1nc1ccccc1c2/C=N/NC(=O)c1ccc(N)cc1	4.53 µM (inactive)	0.452 µM (active)	0.0489 µM (active)	< 0.01 µM (active)	0.279 µM (active)	0.0589 µM (active)	< 0.016 µM (active)	< 0.0405 µM (active)	0.075 µM (active)	0.177 µM (active)	0.0327 µM (active)	< 0.01 µM (active)	< 0.01 µM (active)	0.197 µM (active)	0.391 µM (active)	3.06 µM (inactive)	0.434 µM (active)	0.33 µM (active)	0.123 µM (active)	3.73 µM (inactive)
O=C(OCc1ccccc1)N(CCCCN(CCCNCc1ccccc1)C(=O)OCc1ccccc1)CCCNCc1ccccc1	0.262 µM (active)	1.71 µM (inactive)	1.43 µM (inactive)	0.243 µM (active)	0.883 µM (active)	1.42 µM (inactive)	7.76 µM (inactive)	0.647 µM (active)	0.208 µM (active)	1.11 µM (active)	0.186 µM (active)	1.98 µM (inactive)	0.191 µM (active)	0.242 µM (active)	1.62 µM (inactive)	0.885 µM (active)	0.288 µM (active)	0.889 µM (active)	12.2 µM (inactive)	1.66 µM (inactive)
Nc1cc2c(nnn2C2OC(COCc3ccccc3)C(OCc3ccccc3)C2OCc2ccccc2)c(=O)[nH]1 (stereo not given)	7.33 µM (inactive)	27.7 µM (inactive)	25.8 µM (inactive)	21.6 µM (inactive)	33.1 µM (inactive)	> 100 µM (inactive)	5.48 µM (inactive)	18.9 µM (inactive)	7.41 µM (inactive)	6.4 µM (inactive)	5.47 µM (inactive)	5.9 µM (inactive)	11.5 µM (inactive)	10.9 µM (inactive)	20 µM (inactive)	21.6 µM (inactive)	10.2 µM (inactive)	48.8 µM (inactive)	17.7 µM (inactive)	12.5 µM (inactive)
CN(C)c1n/c(=N/Cc2ccncc2)ss1	54.5 µM (inactive)	18.5 µM (inactive)	18.4 µM (inactive)	> 46.9 µM (inactive)	> 75.5 µM (inactive)	31.5 µM (inactive)	61 µM (inactive)	16.1 µM (inactive)	17 µM (inactive)	26.1 µM (inactive)	4.39 µM (inactive)	10.7 µM (inactive)	6.4 µM (inactive)	38.9 µM (inactive)	19.8 µM (inactive)	37.8 µM (inactive)	21.7 µM (inactive)	> 100 µM (inactive)	> 90.8 µM (inactive)	18.7 µM (inactive)
c1ccc(CN2CCC(CNc3ncnc4ccccc34)C2)cc1 (stereo not given)	29.5 µM (inactive)	19.5 µM (inactive)	> 100 µM (inactive)	68.5 µM (inactive)	> 100 µM (inactive)	> 100 µM (inactive)	50.2 µM (inactive)	23 µM (inactive)	23 µM (inactive)	95.3 µM (inactive)	25.8 µM (inactive)	93.5 µM (inactive)	17.2 µM (inactive)	45 µM (inactive)	> 100 µM (inactive)	> 100 µM (inactive)	47.1 µM (inactive)	41.3 µM (inactive)	51.4 µM (inactive)	35.8 µM (inactive)
